According to patent US20060111368A1, “Phosphodiesterase inhibitor” (Kyowa Hakko Kogyo Co., Ltd., priority 2002, published 2006):
Structures can show the parent of a compound that is named as a salt. Where two headings read alike, the source gives them in different places.

Legend:
[1] = biological target: T1, PDE10A (Homo sapiens, UniProt Q9Y233); test: Activity of inhibiting PDE10A activity ([3H]cAMP decomposition inhibiting test); format: biochemical; conditions: for inhibition at 1 µM: read-out: [3H] cAMP decomposition inhibition rate (%); for IC50: read-out: IC50 (concentration at which to inhibit [3H]cAMP decomposition by 50%)
T1 construct: made in house; host or cells: Sf9 insect cells (baculovirus, pVL1393)
Procedure: Activity of Inhibiting PDE10A Activity (^3H]cAMP Decomposition Inhibiting Test)
PCR was performed using DNAs having base sequences described in SEQ ID NO. 1 and SEQ ID NO. 2 as primers and human kidney cDNA as a template to prepare a plasmid containing amplified fragments. The plasmid was cleaved with restriction endonucleases Pst I and Xba I to obtain a Pst I-Xba I fragment of 0.7 kb.
Meanwhile, Est clone (Cosmo Bio, Tokyo) of GenBank, ACCESSION WO 4835 was cleaved with restriction endonucleases Kpn I and Pst I to obtain a Kpn I-Pst I fragment of 1.5 kb.
The resulting Pst I-Xba I fragment of 0.7 kb and Kpn I-Pst I fragment of 1.5 kb were subcloned in a Kpn I-Xba I site of pBluescript II KS(−) (STRATAGENE, La Jolla, Calif., USA),to construct a plasmid having a cDNA fragment completely including a catalyst region of PDE10A. Subsequently, the plasmid was cleaved with restriction endonucleases Kpn I and Not I to obtain a Kpn I-Not I fragment of 2.2 kb.
The resulting Kpn I-Not I fragment of 2.2 kb and a linker having a BamH I-Kpn I cleavage surface prepared by synthetic DNA having base sequences described in SEQ ID NOS. 3 and 4 were subcloned in a BamH I-Not I site of pVL1393 (PharMingen, San Diego, Calif., USA) to obtain a plasmid for preparation of Baculovirus. The plasmid contains a DNA encoding a peptide in which methionine, FLAG tag and a peptide having a 64th to 779th amino acid sequence of PDE10A [GenBank, ACCESSION NP 006652: Gene, vol. 234, p. 109 (1999), J. Biol. Chem., vol. 274, p. 18438 (1999)] are bound in the order.
The above gene recombinational manipulation was performed according to the method described in Molecular Cloning, 2nd edition, Cold Spring Harbor Laboratory Press, New York (1989).
The expression of PDE10A was conducted according to the Baculovirus expression vector system manual (PharMingen) using insect cells. As insect cells, Sf9 cells (Asahi Technoglass, Tokyo) were used. Sf9 cells were infected with a supernatant (co-transfection sup) containing PDE10A expression virus prepared according to the manual, and cultured at 27° C. for 4 days. The cells were recovered, washed with a phosphate-buffered saline (PBS), and then suspended in an extraction solution [20 mmol/L Tris-acetate (pH 7.5), 2 mmol/L MgCl2, 1 mmol/L dithiothreitol, 1 mmol/L ethylenediaminetetraacetic acid (EDTA), 0.25 mol/L sucrose, 250 unit/mL aprotinin, 40 μg/mL phenylmethylsulfonyl fluoride, and 1 μg/mL pepstatin A]. The cells were disrupted in ice with the maximum output under conditions of 5 seconds and five times using an ultrasonic disruption machine (TOMY model UR-200R, TOMY, Tokyo). A soluble fraction was obtained by centrifugation under 10,000 rpm of the fraction at 4° C. for 30 minutes, and the resulting soluble fraction was used for measuring the PDE activity.
The PDE activity was measured according to the method described in Methods Enzymol., vol. 159, p. 457 (1988).
Using [^3H]cAMP as a substrate, an enzyme reaction was conducted in a reaction solution containing 300 μL of 50 mmol/L N,N-bis (2-hydroxyethyl)-2-aminoethanesulfonic acid (pH 7.2), 1 mmol/L MgCl2 and 0.1 mmol/L ethylene glycol-bis (β-aminoethyl ether)-N,N,N′,N′-tetraacetic acid: EGTA). The concentration of the substrate was 0.2 μmol/L. To 95 μL of an enzyme dilute solution were added 5 μL of a test compound (DMSO solution) and 200 μL of a substrate solution. The mixture was incubated at 30° C. for 20 minutes, and then HCl was added to stop the reaction. The reaction product (5′-AMP) was converted to adenosine using 5′-nucleotidase, and separated the unreacted product from the reactant by DEAE-Sephadex A-25 column (Amersham Pharmacia Biotech, Uppsala, Sweden). The elute was moved to scintillation vials, 6 mL of Ultima Gold (Packard Instrument, Meriden, Conn., USA) was added, and the radioactivity was measured for 2 minutes using a liquid scintillation counter (Beckman LS6500, Beckman, Tokyo),. […]

[2] = Test compound concentration 1 μmol/L, substrate [3H]cAMP 0.2 μmol/L

T1 sequence (Q9Y233 340-1055): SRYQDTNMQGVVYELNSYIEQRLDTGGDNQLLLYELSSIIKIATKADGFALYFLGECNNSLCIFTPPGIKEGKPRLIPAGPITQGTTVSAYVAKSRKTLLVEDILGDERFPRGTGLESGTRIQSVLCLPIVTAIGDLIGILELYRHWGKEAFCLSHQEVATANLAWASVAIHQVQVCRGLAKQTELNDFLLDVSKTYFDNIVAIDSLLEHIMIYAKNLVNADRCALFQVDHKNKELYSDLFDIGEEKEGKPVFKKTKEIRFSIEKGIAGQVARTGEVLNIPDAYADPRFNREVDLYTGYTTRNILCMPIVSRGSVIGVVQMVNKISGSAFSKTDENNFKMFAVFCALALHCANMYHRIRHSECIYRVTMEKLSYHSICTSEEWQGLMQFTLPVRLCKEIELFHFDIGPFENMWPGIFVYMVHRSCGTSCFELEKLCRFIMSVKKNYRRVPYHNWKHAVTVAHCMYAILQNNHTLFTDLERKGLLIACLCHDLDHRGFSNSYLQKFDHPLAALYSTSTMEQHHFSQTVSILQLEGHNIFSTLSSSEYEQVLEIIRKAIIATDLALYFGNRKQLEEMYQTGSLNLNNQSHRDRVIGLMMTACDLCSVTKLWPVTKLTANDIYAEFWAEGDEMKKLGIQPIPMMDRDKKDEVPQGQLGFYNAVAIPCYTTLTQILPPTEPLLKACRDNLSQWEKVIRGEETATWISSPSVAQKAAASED

| SMILES | inhibition at 1 µM [1, 2] [%] | IC50 ([1]; substrate [3H]cAMP 0.2 μmol/L) [nM] | melting point | inhibition at 1 µM [1] [%] |
| --- | --- | --- | --- | --- |
| COc1ccccc1-c1ccc(-c2nc3ccc(F)cc3c(CO)c2C)cc1 [Compound 2, 6-Fluoro-4-hydroxymethyl-2-(2′-methoxybiphenyl-4-yl)-3-methylquinoline] | 97 | 66 | 178 to 179 °C | – |
| Cc1c(-c2ccc(-c3ccccc3C=O)cc2)nc2ccc(F)cc2c1CO [Compound 9] | – | – | 192 to 194 °C | – |
| Cc1c(-c2ccc(-c3ccccc3CNc3ccccc3)cc2)nc2ccc(F)cc2c1CO [Compound 13, 6-Fluoro-4-hydroxymethyl-3-methyl-2-[2′-(phenylamino)methylbiphenyl-4-yl]quinoline] | 90 | 103 | 201 to 202 °C | – |
| Cc1c(-c2ccc(-c3ccccc3-c3ccccc3)cc2)nc2ccc(F)cc2c1N | – | – | 227 to 229 °C | – |
| CCOc1ccccc1-c1ccc(-c2nc3ccc(F)cc3c(C(=O)O)c2C)cc1 [I, 2-(2′-Ethoxybiphenyl-4-yl)-6-fluoro-3-methylquinoline-4-carboxylic acid] | 99 | 5.5 | – | – |
| Cc1c(-c2ccc(-c3ccccc3-c3ccccc3)cc2)nc2ccc(F)cc2c1C(N)=O [O, 6-Fluoro-3-methyl-2-([1,1′:2′,1″-terphenyl]-4-yl)quinone-4-carboxamide] | – | 33 | 243 to 246 °C | 94 |
| Cc1ccccc1-c1ccc(-c2nc3ccc(F)cc3c(C(=O)O)c2C)cc1 [H, 6-Fluoro-3-methyl-2-(2′-methylbiphenyl-4-yl)quinoline-4-carboxylic acid] | 97 | 47 | 260 °C (dec.) | – |
| Cc1c(-c2ccc(Br)cc2)nc2ccc(F)cc2c1CO [Compound 21, 2-(4-Bromophenyl)-6-fluoro-4-hydroxymethyl-3-methylquinoline] | – | – | 222 to 240 °C | – |
| COc1ccccc1-c1ccc(-c2nc3ccc(F)cc3c(C(=O)O)c2C)cc1 [D, 6-Fluoro-2-(2′-methoxybiphenyl-4-yl)-3-methylquinoline-4-carboxylic acid] | 99 | 11 | 283 to 295 °C | – |
| Cc1c(-c2ccc(-c3ccccc3C=O)cc2)nc2ccc(F)cc2c1C(=O)O [Compound J, 6-Fluoro-2-(2′-formylbiphenyl-4-yl)-3-methylquinoline-4-carboxylic acid] | 99 | 16 | > 300 °C | – |
| Cc1c(-c2ccc(-c3ccccc3CN3CCOCC3)cc2)nc2ccc(F)cc2c1CO (as salt: hydrochloride) [Compound 12, 6-Fluoro-4-hydroxymethyl-3-methyl-2-(2′-morpholinomethylbiphenyl-4-yl)quinoline dihydrochloride] | – | – | 190 to 192 °C | – |
| COc1ccc(F)cc1-c1ccc(-c2nc3ccc(F)cc3c(CO)c2C)cc1 [Compound 7, 6-Fluoro-2-(5′-fluoro-2′-methoxybiphenyl-4-yl)-4-hydroxymethyl-3-methylquinoline] | 97 | 34 | 202 to 203 °C | – |
| Cc1c(-c2ccc(-c3ccccc3CN3CCOCC3)cc2)nc2ccc(F)cc2c1C(=O)O [M, 6-Fluoro-3-methyl-2-(2′-morpholinomethylbiphenyl-4-yl)quinoline-4-carboxylic acid] | 98 | 27 | 163 to 165 °C | – |
| Cc1c(-c2ccc(Br)cc2)nc2ccc(F)cc2c1C(=O)O | – | – | > 300 °C | – |
| COc1ccccc1N1CCN(c2nc3ccc(F)cc3c(CO)c2C)CC1 [Compound 20, 6-Fluoro-4-hydroxymethyl-2-[4-(2-methoxyphenyl)piperazin-1-yl]-3-methylquinoline] | – | – | 190 to 191 °C | – |
| COc1ccc(F)cc1-c1ccc(-c2nc3ccc(F)cc3c(C(=O)O)c2C)cc1 | – | – | > 300 °C | – |
| Cc1c(-c2ccc(-c3ccccc3-c3ccccc3)cc2)nc2ccc(F)cc2c1CO [Compound 1, 6-Fluoro-4-hydroxymethyl-3-methyl-2-([1,1′:2′,1″-terphenyl]-4-yl)quinoline] | 99 | 4.2 | 121 to 123 °C | – |
| Cc1c(-c2ccc(-c3ccccc3CN3CCN(c4ccccc4)CC3)cc2)nc2ccc(F)cc2c1CO [Compound 11, 6-Fluoro-4-hydroxymethyl-3-methyl-2-[2′-(4-phenylpiperazin-1-yl)methylbiphenyl-4-yl]quinoline] | 90 | 173 | 154 to 156 °C | – |
| CNCc1ccccc1-c1ccc(-c2nc3ccc(F)cc3c(CO)c2C)cc1 [Compound 10, 6-Fluoro-4-hydroxymethyl-3-methyl-2-[2′-(methylamino)methylbiphenyl-4-yl]quinoline] | – | – | 193 to 195 °C | – |
| COC(=O)c1c(C)c(N2CCN(c3ccccc3OC)CC2)nc2ccc(F)cc12 [Compound 19, Methyl 6-Fluoro-2-[4-(2-methoxyphenyl)piperazin-1-yl]-3-methylquinoline-4-carboxylate] | – | – | 128 to 129 °C | – |
| CC(=O)c1c(C)c(-c2ccc(-c3ccccc3-c3ccccc3)cc2)nc2ccc(F)cc12 [Compound 16, 4-Acetyl-6-fluoro-3-methyl-2-([1,1′:2′,11″-terphenyl]-4-yl)quinoline] | – | – | – | 80 |
| COc1ccc(-c2ccc(-c3nc4ccc(F)cc4c(CO)c3C)cc2)c(OC)c1 [Compound 8, 2-(2′,4′-dimethoxybiphenyl-4-yl)-6-fluoro-4-hydroxym ethyl-3-methylquinoline] | 68 | – | 205 to 207 °C | – |
| CCOc1cccc(-c2ccc(-c3nc4ccc(F)cc4c(CO)c3C)cc2)c1 [Compound 4, 2-(31-Ethoxybiphenyl-4-yl)-6-fluoro-4-hydroxymethyl-3-methylquinoline] | 83 | – | 199 to 200 °C | – |
| Cc1c(-c2ccc(-c3ccccc3F)cc2)nc2ccc(F)cc2c1CO [Compound 6, 6-Fluoro-2-(2′-fluorobiphenyl-4-yl)-4-hydroxymethyl-3-methylquinoline] | 91 | 98 | – | – |
| COC(=O)c1c(C)c(-c2ccc(-c3ccccc3-c3ccccc3)cc2)nc2ccc(F)cc12 [Compound 15, Methyl 6-fluoro-3-methyl-2-([1,1′:2′,1″-terphenyl]-4-yl)quinoline-4-carboxylate] | – | – | 164 to 165 °C | – |
| COc1ccc(-c2ccc(-c3nc4ccc(F)cc4c(C(=O)O)c3C)cc2)c(OC)c1 | – | – | > 300 °C | – |
| Cc1c(-c2ccc(-c3ccccc3CNCCO)cc2)nc2ccc(F)cc2c1CO (as salt: hydrochloride) | – | – | 203 to 205 °C | – |
| CCOc1ccc(-c2ccc(-c3nc4ccc(F)cc4c(CO)c3C)cc2)cc1 [Compound 5, 2-(4′-Ethoxybiphenyl-4-yl)-6-fluoro-4-hydroxymethyl-3-methylquinoline] | – | – | 211 to 212 °C | – |
